Laboratory results published in US12226412B2, “Heteroaryl-ketone fused azadecalin glucocorticoid receptor modulators” (Corcept Therapeutics, Inc., priority 2012, dated 2025).
Read-outs that look alike come from different tables or passages of the source.

Experiments:
[1] = test system: induction of TAT by dexamethasone in HepG2 cells; test: HepG2 tyrosine aminotransferase (TAT) assay; assay type: cell-based, human
[2] = target: T1, human recombinant GR (Homo sapiens, UniProt P04150); test: Human glucocorticoid receptor (GR) fluorescence polarisation (FP) binding assay
T1 construct: purchased PanVera P2812
T1 sequence (P04150 1-777): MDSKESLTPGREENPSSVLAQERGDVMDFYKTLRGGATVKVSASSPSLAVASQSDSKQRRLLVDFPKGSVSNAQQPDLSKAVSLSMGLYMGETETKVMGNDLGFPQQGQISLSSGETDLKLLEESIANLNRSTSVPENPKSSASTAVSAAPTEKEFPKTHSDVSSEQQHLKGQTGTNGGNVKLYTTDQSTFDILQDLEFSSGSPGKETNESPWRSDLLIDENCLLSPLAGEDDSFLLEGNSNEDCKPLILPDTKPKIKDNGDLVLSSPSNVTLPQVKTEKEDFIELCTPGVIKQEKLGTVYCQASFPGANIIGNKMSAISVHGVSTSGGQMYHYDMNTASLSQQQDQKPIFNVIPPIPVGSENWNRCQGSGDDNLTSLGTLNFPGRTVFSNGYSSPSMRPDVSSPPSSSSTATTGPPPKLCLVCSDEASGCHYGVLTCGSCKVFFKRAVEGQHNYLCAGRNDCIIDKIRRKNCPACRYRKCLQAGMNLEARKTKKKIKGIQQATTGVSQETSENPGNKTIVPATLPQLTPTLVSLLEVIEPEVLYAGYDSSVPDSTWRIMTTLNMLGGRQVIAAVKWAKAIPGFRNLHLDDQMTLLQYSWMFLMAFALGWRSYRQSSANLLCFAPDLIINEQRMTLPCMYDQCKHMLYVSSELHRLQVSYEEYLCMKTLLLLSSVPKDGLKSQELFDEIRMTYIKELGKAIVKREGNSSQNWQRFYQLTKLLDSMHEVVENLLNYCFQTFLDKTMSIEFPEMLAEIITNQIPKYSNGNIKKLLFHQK
Method in brief: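 Competition fluorescence polarisation: 0.5 nM GS Red labelled glucocorticoid and 1 nM recombinant human GR with 8-point half-log compound series, 1% DMSO, 4 h room temperature, potassium phosphate pH 7.4 buffer with molybdate, EDTA, DTT. Affinity derived from the drop in polarisation, normalised to blank wells.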

[3] = HepG2 cells, challenge of 100 nM dexamethasone, Ki from IC50 by Cheng and Prusoff equation
[4] = human recombinant GR, fluorescence polarisation binding assay, read-out: GR binding

| Structure (SMILES) | Ki [1, 3] [nM] | Ki [2, 4] [nM] | Ki [1] [nM] | Ki [2] [nM] |
| --- | --- | --- | --- | --- |
| CCn1nccc1S(=O)(=O)N1CCC2=Cc3c(cnn3-c3ccc(F)cc3)C[C@]2(C(=O)c2nccs2)C1 [Example 12W, (R)-(6-((1-ethyl-1H-pyrazol-5-yl)sulfonyl)-1-(4-fluorophenyl)-4,4a,5,6,7,8-hexahydro-1H-pyrazolo[3,4-g]isoquinolin-4a-yl)(thiazol-2-yl)methanone] | ≥ 100 | > 1 | – | – |
| O=C(c1ccccn1)[C@]12Cc3cnn(-c4ccc(F)cc4)c3C=C1CCN(S(=O)(=O)c1ccccc1F)C2 [Example 2L, (R)-(1-(4-fluorophenyl)-6-((2-fluorophenyl)sulfonyl)-4,4a,5,6,7,8-hexahydro-1H-pyrazolo[3,4-g]isoquinolin-4a-yl)(pyridin-2-yl)methanone] | < 20 | < 0.5 | – | – |
| CCn1ncc(S(=O)(=O)N2CCC3=Cc4c(cnn4-c4ccc(F)cc4)C[C@]3(C(=O)c3cc(C(F)(F)F)ccn3)C2)n1 [Example 11CK, (R)-(6-((2-ethyl-2H-1,2,3-triazol-4-yl)sulfonyl)-1-(4-fluorophenyl)-4,4a,5,6,7,8-hexahydro-1H-pyrazolo[3,4-g]isoquinolin-4a-yl)(4-(trifluoromethyl)pyridin-2-yl)methanone] | < 20 | < 0.5 | – | – |
| O=C(c1nccs1)[C@]12Cc3cnn(-c4ccc(F)cc4)c3C=C1CCN(S(=O)(=O)c1ccc(F)cc1)C2 [Example 5, (R)-(1-(4-fluorophenyl)-6-((4-fluorophenyl)sulfonyl)-4,4a,5,6,7,8-hexahydro-1H-pyrazolo[3,4-g]isoquinolin-4a-yl)(thiazol-2-yl)methanone] | 20 to 100 | < 0.5 | – | – |
| Cc1ccc(S(=O)(=O)N2CCC3=Cc4c(cnn4-c4ccc(F)cc4)C[C@]3(C(=O)c3ccccn3)C2)cc1C [Example 11M, (R)-(6-((3,4-dimethylphenyl)sulfonyl)-1-(4-fluorophenyl)-4,4a,5,6,7,8-hexahydro-1H-pyrazolo[3,4-g]isoquinolin-4a-yl)(pyridin-2-yl)methanone] | < 20 | < 0.5 | – | – |
| O=C(c1ccccn1)[C@]12Cc3cnn(-c4ccc(F)cc4)c3C=C1CCN(S(=O)(=O)c1ccc(C(F)(F)F)c(F)c1)C2 [Example 11AT, (R)-(6-((3-fluoro-4-(trifluoromethyl)phenyl)sulfonyl)-1-(4-fluorophenyl)-4,4a,5,6,7,8-hexahydro-1H-pyrazolo[3,4-g]isoquinolin-4a-yl)(pyridin-2-yl)methanone] | – | – | < 20 | < 0.5 |
| Cc1ccnc(C(=O)[C@]23Cc4cnn(-c5ccc(F)cc5)c4C=C2CCN(S(=O)(=O)c2ccnc(C(F)(F)F)c2)C3)c1 [Example 11BB, (R)-(1-(4-fluorophenyl)-6-((2-(trifluoromethyl)pyridin-4-yl)sulfonyl)-4,4a,5,6,7,8-hexahydro-1H-pyrazolo[3,4-g]isoquinolin-4a-yl)(4-methylpyridin-2-yl)methanone] | < 20 | < 0.5 | – | – |
| COc1ccc(S(=O)(=O)N2CCC3=Cc4c(cnn4-c4ccc(F)cc4)C[C@]3(C(=O)c3ccccn3)C2)cc1Cl [Example 11C, (R)-(6-((3-chloro-4-methoxyphenyl)sulfonyl)-1-(4-fluorophenyl)-4,4a,5,6,7,8-hexahydro-1H-pyrazolo[3,4-g]isoquinolin-4a-yl)(pyridin-2-yl)methanone] | 20 to 100 | < 0.5 | – | – |
| Cc1cnc(C(=O)[C@]23Cc4cnn(-c5ccc(F)cc5)c4C=C2CCN(S(=O)(=O)c2cnn(C)c2)C3)s1 [Example 12T, (R)-(1-(4-fluorophenyl)-6-((1-methyl-1H-pyrazol-4-yl)sulfonyl)-4,4a,5,6,7,8-hexahydro-1H-pyrazolo[3,4-g]isoquinolin-4a-yl)(5-methylthiazol-2-yl)methanone] | < 20 | < 0.5 | – | – |
| Cc1cccc(S(=O)(=O)N2CCC3=Cc4c(cnn4-c4ccc(F)cc4)C[C@]3(C(=O)c3ncccn3)C2)c1 [Example 1J, (R)-(1-(4-fluorophenyl)-6-(m-tolylsulfonyl)-4,4a,5,6,7,8-hexahydro-1H-pyrazolo [3,4-g]isoquinolin-4a-yl)(pyrimidin-2-yl)methanone] | 20 to 100 | < 0.5 | – | – |
| O=C(c1ccccn1)[C@]12Cc3cnn(-c4ccc(F)cc4)c3C=C1CCN(S(=O)(=O)c1ccc(Cl)c(Cl)c1)C2 [Example 11AF, (R)-(6-((3,4-dichlorophenyl)sulfonyl)-1-(4-fluorophenyl)-4,4a,5,6,7,8-hexahydro-1H-pyrazolo[3,4-g]isoquinolin-4a-yl)(pyridin-2-yl)methanone] | – | – | < 20 | < 0.5 |
| COCc1cccc(S(=O)(=O)N2CCC3=Cc4c(cnn4-c4ccc(F)cc4)C[C@]3(C(=O)c3ccccn3)C2)c1 [Example 11AA, (R)-(1-(4-fluorophenyl)-6-((3-(methoxymethyl)phenyl)sulfonyl)-4,4a,5,6,7,8-hexahydro-1H-pyrazolo[3,4-g]isoquinolin-4a-yl)(pyridin-2-yl)methanone] | 20 to 100 | < 0.5 | – | – |
| O=C(c1nccs1)[C@]12Cc3cnn(-c4ccc(F)cc4)c3C=C1CCN(S(=O)(=O)Cc1cccc(F)c1)C2 [Example 2A, (R)-(6-((3-fluorobenzyl)sulfonyl)-1-(4-fluorophenyl)-4,4a,5,6,7,8-hexahydro-1H-pyrazolo[3,4-g]isoquinolin-4a-yl)(thiazol-2-yl) methanone] | ≥ 100 | < 0.5 | – | – |
| COc1ccc(C(=O)[C@]23Cc4cnn(-c5ccc(F)cc5)c4C=C2CCN(S(=O)(=O)c2ccc(C(F)(F)F)cc2)C3)nc1 [Example 5H, (R)-(1-(4-fluorophenyl)-6-((4-(trifluoromethyl)phenyl)sulfonyl)-4,4a,5,6,7,8-hexahydro-1H-pyrazolo[3,4-g]isoquinolin-4a-yl)(5-methoxypyridin-2-yl)methanone] | < 20 | 0.5 to 1 | – | – |
| Cc1ccnc(C(=O)[C@]23Cc4cnn(-c5ccc(F)cc5)c4C=C2CCN(S(=O)(=O)c2cccc(S(C)(=O)=O)c2)C3)c1 [Example 11AP, (R)-(1-(4-fluorophenyl)-6-((3-(methylsulfonyl)phenyl)sulfonyl)-4,4a,5,6,7,8-hexahydro-1H-pyrazolo[3,4-g]isoquinolin-4a-yl)(4-methylpyridin-2-yl)methanone] | < 20 | < 0.5 | – | – |
| CCn1nccc1S(=O)(=O)N1CCC2=Cc3c(cnn3-c3ccc(F)cc3)C[C@]2(C(=O)c2cc(C(F)(F)F)ccn2)C1 [Example 2U, (R)-(6-((1-ethyl-1H-pyrazol-5-yl)sulfonyl)-1-(4-fluorophenyl)-4,4a,5,6,7,8-hexahydro-1H-pyrazolo[3,4-g]isoquinolin-4a-yl)(4-(trifluoromethyl)pyridin-2-yl)methanone] | < 20 | > 1 | – | – |
| Cc1ccnc(C(=O)[C@]23Cc4cnn(-c5ccc(F)cc5)c4C=C2CCN(S(=O)(=O)c2cccc(C#N)c2)C3)c1 [Example 11S, (R)-3-((1-(4-fluorophenyl)-4a-(4-methylpicolinoyl)-4a,5,7,8-tetrahydro-1H-pyrazolo[3,4-g]isoquinolin-6 (4H)-yl)sulfonyl)benzonitrile] | < 20 | < 0.5 | – | – |
| Cc1ccnc(C(=O)[C@]23Cc4cnn(-c5ccc(F)cc5)c4C=C2CCN(S(=O)(=O)c2c(C)noc2C)C3)c1 [Example 11AX, (R)-(6-((3,5-dimethylisoxazol-4-yl)sulfonyl)-1-(4-fluorophenyl)-4,4a,5,6,7,8-hexahydro-1H-pyrazolo[3,4-g]isoquinolin-4a-yl)(4-methylpyridin-2-yl)methanone] | 20 to 100 | < 0.5 | – | – |
